{
  "source": "ChEMBL document CHEMBL4725344",
  "about": "“Development of Highly Potent Carbazole Amphiphiles as Membrane-Targeting Antimicrobials for Treating Gram-Positive Bacterial Infections” (J Med Chem, 2020)",
  "key": {"[1]": {"experiment": "Selectivity ratio of MIC for methicillin-resistant Staphylococcus aureus NCTC 10442 to MIC for Bacillus subtilis ATCC 6633", "format": "functional"}, "Bacillus spizizenii": {"tested_on": "Bacillus spizizenii", "experiment": "Antibacterial activity against Bacillus subtilis ATCC 6633 measured after 24 hrs by microplate reader analysis", "format": "functional"}, "[2]": {"experiment": "Hemolytic activity in rabbit erythrocytes measured after 1 hr by microplate reader analysis", "format": "ADME, cell-based, Oryctolagus cuniculus, Erythrocyte"}, "Staphylococcus aureus [3]": {"tested_on": "Staphylococcus aureus", "experiment": "Antibacterial activity against Staphylococcus aureus ATCC 29213 measured after 24 hrs by microplate reader analysis", "format": "functional"}, "[4]": {"experiment": "Selectivity ratio of MIC for methicillin-resistant Staphylococcus aureus N315 to MIC for Bacillus subtilis ATCC 6633", "format": "functional"}, "[5]": {"experiment": "Selectivity ratio of MIC for methicillin-resistant Staphylococcus aureus N315 to MIC for Staphylococcus epidermidis ATCC 12228", "format": "functional"}, "[6]": {"experiment": "Selectivity ratio of MIC for methicillin-resistant Staphylococcus aureus NCTC 10442 to MIC for Staphylococcus epidermidis ATCC 12228", "format": "functional"}, "[7]": {"tested_on": "Staphylococcus epidermidis", "experiment": "Antibacterial activity against Staphylococcus epidermidis ATCC 12228 measured after 24 hrs by microplate reader analysis", "format": "functional"}, "[8]": {"experiment": "Selectivity ratio of MIC for methicillin-resistant Staphylococcus aureus N315 to MIC for Staphylococcus epidermidis CMCC 26069", "format": "functional"}, "[9]": {"tested_on": "Staphylococcus epidermidis", "experiment": "Antibacterial activity against Staphylococcus epidermidis CMCC 26069 measured after 24 hrs by microplate reader analysis", "format": "functional"}, "[10]": {"experiment": "Selectivity ratio of MIC for Staphylococcus aureus ATCC 29213 to MIC for Bacillus subtilis ATCC 6633", "format": "functional"}, "[11]": {"experiment": "Selectivity ratio of MIC for Staphylococcus aureus ATCC 29213 to MIC for Staphylococcus epidermidis CMCC 26069", "format": "functional"}, "Bacillus subtilis": {"tested_on": "Bacillus subtilis", "experiment": "Antibacterial activity against Bacillus subtilis CMCC 63501 measured after 24 hrs by microplate reader analysis", "format": "functional"}, "[12]": {"experiment": "Selectivity ratio of MIC for methicillin-resistant Staphylococcus aureus NCTC 10442 to MIC for Staphylococcus epidermidis CMCC 26069", "format": "functional"}, "[13]": {"experiment": "Selectivity ratio of MIC for Staphylococcus aureus ATCC 29213 to MIC for Staphylococcus epidermidis ATCC 12228", "format": "functional"}, "[14]": {"experiment": "Selectivity ratio of MIC for methicillin-resistant Staphylococcus aureus NCTC 10442 to MIC for Bacillus subtilis CMCC 63501", "format": "functional"}, "Staphylococcus aureus [15]": {"tested_on": "Staphylococcus aureus", "experiment": "Antibacterial activity against methicillin-resistant Staphylococcus aureus NCTC 10442 measured after 24 hrs by microplate reader analysis", "format": "functional"}, "[16]": {"experiment": "Selectivity ratio of MIC for Staphylococcus aureus ATCC 29213 to MIC for Bacillus subtilis CMCC 63501", "format": "functional"}, "[17]": {"experiment": "Selectivity ratio of MIC for methicillin-resistant Staphylococcus aureus N315 to MIC for Bacillus subtilis CMCC 63501", "format": "functional"}, "Staphylococcus aureus [18]": {"tested_on": "Staphylococcus aureus", "experiment": "Antibacterial activity against methicillin-resistant Staphylococcus aureus N315 measured after 24 hrs by microplate reader analysis", "format": "functional"}},
  "data": [
    {"smiles": "CC(C)=CCn1c2ccccc2c2c(OCC(O)CNC(=O)[C@@H](N)CCCNC(=N)N)cccc21", "note": "(stereo not given in full)", "values": [
      {"measurement": "Selectivity ratio", "setting": "[1]", "value": 2},
      {"measurement": "MIC", "setting": "Bacillus spizizenii", "value": 3.12, "unit": "µg/mL"},
      {"measurement": "HC50 at 1 h", "setting": "[2]", "value": "> 200", "unit": "µg/mL"},
      {"measurement": "MIC", "setting": "Staphylococcus aureus [3]", "value": 6.25, "unit": "µg/mL"},
      {"measurement": "Selectivity ratio", "setting": "[4]", "value": 2},
      {"measurement": "Selectivity ratio", "setting": "[5]", "value": 2},
      {"measurement": "Selectivity ratio", "setting": "[6]", "value": 2},
      {"measurement": "MIC", "setting": "[7]", "value": 3.12, "unit": "µg/mL"},
      {"measurement": "Selectivity ratio", "setting": "[8]", "value": 2},
      {"measurement": "MIC", "setting": "[9]", "value": 3.12, "unit": "µg/mL"},
      {"measurement": "Selectivity ratio", "setting": "[10]", "value": 2},
      {"measurement": "Selectivity ratio", "setting": "[11]", "value": 2},
      {"measurement": "MIC", "setting": "Bacillus subtilis", "value": 3.12, "unit": "µg/mL"},
      {"measurement": "Selectivity ratio", "setting": "[12]", "value": 2},
      {"measurement": "Selectivity ratio", "setting": "[13]", "value": 2},
      {"measurement": "Selectivity ratio", "setting": "[14]", "value": 2},
      {"measurement": "MIC", "setting": "Staphylococcus aureus [15]", "value": 6.25, "unit": "µg/mL"},
      {"measurement": "Selectivity ratio", "setting": "[16]", "value": 2},
      {"measurement": "Selectivity ratio", "setting": "[17]", "value": 2},
      {"measurement": "MIC", "setting": "Staphylococcus aureus [18]", "value": 6.25, "unit": "µg/mL"}
    ]},
    {"smiles": "CC(C)=CCn1c2ccccc2c2c(OCC(O)CNC(=O)[C@@H](N)CCCCN)cccc21", "note": "(stereo not given in full)", "values": [
      {"measurement": "Selectivity ratio", "setting": "[1]", "value": 2},
      {"measurement": "MIC", "setting": "Bacillus spizizenii", "value": 6.25, "unit": "µg/mL"},
      {"measurement": "HC50 at 1 h", "setting": "[2]", "value": "> 200", "unit": "µg/mL"},
      {"measurement": "MIC", "setting": "Staphylococcus aureus [3]", "value": 25, "unit": "µg/mL"},
      {"measurement": "Selectivity ratio", "setting": "[4]", "value": 2},
      {"measurement": "Selectivity ratio", "setting": "[5]", "value": 2},
      {"measurement": "Selectivity ratio", "setting": "[6]", "value": 2},
      {"measurement": "MIC", "setting": "[7]", "value": 6.25, "unit": "µg/mL"},
      {"measurement": "Selectivity ratio", "setting": "[8]", "value": 2},
      {"measurement": "MIC", "setting": "[9]", "value": 6.25, "unit": "µg/mL"},
      {"measurement": "Selectivity ratio", "setting": "[10]", "value": 2},
      {"measurement": "Selectivity ratio", "setting": "[11]", "value": 2},
      {"measurement": "MIC", "setting": "Bacillus subtilis", "value": 6.25, "unit": "µg/mL"},
      {"measurement": "Selectivity ratio", "setting": "[12]", "value": 2},
      {"measurement": "Selectivity ratio", "setting": "[13]", "value": 2},
      {"measurement": "Selectivity ratio", "setting": "[14]", "value": 2},
      {"measurement": "MIC", "setting": "Staphylococcus aureus [15]", "value": 25, "unit": "µg/mL"},
      {"measurement": "Selectivity ratio", "setting": "[16]", "value": 2},
      {"measurement": "Selectivity ratio", "setting": "[17]", "value": 2},
      {"measurement": "MIC", "setting": "Staphylococcus aureus [18]", "value": 12.5, "unit": "µg/mL"}
    ]}
  ]
}
